Values quoted from earlier work in US11191839B2, “Composition for treatment of infertility in a subject” (priority 2015, dated 2021).

Tested on: couples with unexplained infertility
Conditions: pertubation with low doses before artificial insemination; Edelstam et al. 2008

Q: For `CCN(CC)CC(=O)Nc1c(C)cccc1C` [lidocaine, Lidocaine], which Pregnancy rates is on record?
A: The Pregnancy rates was “increase pregnancy rates”.
